According to patent US9125388B2, “Biological control” (Isis Innovation Limited, priority 1999, dated 2015):

Tests used:
Type in all cases: in vivo, Drosophila melanogaster
[1] = tested on: Hsp26 tTa, tRe Msl-1^Mpu on the 2nd chromosome; assay: Recombinant chromosome experiments: parents raised on supplement, progeny on normal food, adults by sex (25, 18 or 29° C.); settings: 25° C.
Experimental: (§1) 40-45 young females and 20-25 young males raised at 25° C. upon food with the indicated tetracycline supplement were allowed to mate, then transferred to normal (tetracycline-free) food after 3-4 days. These flies were transferred to fresh vials of normal food every day for 12 days, then removed on the 13th day. All the vials were incubated at 25° C. while the progeny developed. The numbers of male and female progeny emerging as adults in each vial were recorded.
(§2) A standard range of additive concentrations were used in the following experiments (0.05-20 μg/ml). […] (=“not done”)
(§3) All the preceding experiments were performed at 25° C., the standard temperature for Drosophila culture. However, the insects in the wild would clearly be exposed to varying temperatures, so we investigated the extent to which the efficiency of the system is affected by temperature. As with the recombinant chromosome experiments, 40-45 young virgin females and 20-25 young males raised at 25° C. upon food with the indicated tetracycline supplement were allowed to mate, then transferred to normal (tetracycline-free) food after 3-4 days. These flies were transferred to fresh vials of normal food every day. The numbers of male and female progeny emerging as adults in each vial were recorded. These experiments were performed at either 18° C. or 29° C.

[2] = tested on: Hsp26 tTa, tRe Msl-2^Nopu on the 2nd chromosome; assay: as above; settings: 25° C.
Experimental: as §1, §2, §3

[3] = tested on: Sxl^pe-tTA, tRE-Msl-2^Nopu on the X chromosome; assay: as above; settings: 25° C.
Experimental: as §1, §2, §3

[4] = tested on: Sxl^pe-tTA, tRE-Msl-2^Nopu on the third chromosome; assay: as above; settings: 25° C.
Experimental: as §1, §2, §3

[5] = tested on: Sxl^pe-tTA, tRE-Ras64B^V12 on the X chromosome; assay: as above
Experimental: as §1, §2, §3

[6] = tested on: Sxl^pe-tTA, tRE-Ras64B^V12 on the third chromosome; assay: as above; settings: 25° C.
Experimental: as §1, §2, §3

[7] = tested on: Sxlp^e tTa, tRe Msl-1^Mpu on the X chromosome; assay: as above; settings: 25° C.
Experimental: as §1, §2, §3

[8] = tested on: Yp3 tTa, tRe Msl-1^Mpu on the 2nd chromosome; assay: as above; settings: 25° C.
Experimental: as §1
Since there is no meiotic recombination in Drosophila melanogaster males, any of these recombinant chromosomes could be used in a genetic sexing or insect control program, if required.
as §2, §3

[9] = tested on: Yp3 tTa, tRe Ras64B^V12 on the 2nd chromosome; assay: Recombinant chromosome experiments / maternal transmission of Tc (Table 1): parents raised on supplement, progeny on normal food, adults by sex; settings: 25° C.
Experimental: as §1, §2, §3
We used a strain of Drosophila in which females, but not males, require Tc for viability.
A strain homozygous for second chromosome insertions of both Yp3-tTA and tRe-Ras64B^V12 was tested for the effect of parental dietary Tc. 40-45 young females and 20-25 young males raised at 25° C. upon food with the indicated tetracycline supplement were allowed to mate, then transferred to normal (tetracycline-free) food after 3-4 days. These flies were transferred to fresh vials of normal food every day for 12 days, and then removed on the 13th day. All the vials were incubated at 25° C. while the progeny developed. The total numbers of male and female progeny emerging as adults were recorded.

[10] = tested on: Recombinant chromosome stocks; assay: Maintenance of stocks on non-antibiotic tetracycline analogues
Experimental: Recombinant chromosome stocks can readily be maintained at 25° C. on epioxytetracycline concentrations of 1 μg/ml or anhydrotetracycline concentrations of 0.1 μg/ml, showing that these non-antibiotic tetracycline analogues are effective in repressing tTA responsive gene expression.
as §2

[11] = parents raised on epioxytetracycline 1 μg/ml
[12] = parents raised on epioxytetracycline 5 μg/ml
[13] = parents raised on epioxytetracycline 20 μg/ml
[14] = Epioxytetracycline Conc. 1 μg/ml
[15] = Epioxytetracycline Conc. 5 μg/ml
[16] = Epioxytetracycline Conc. 20 μg/ml

CN(C)[C@H]1C(O)=C(C(N)=O)C(=O)[C@@]2(O)C(O)=C3C(=O)c4c(O)cccc4[C@@](C)(O)[C@H]3[C@H](O)[C@@H]12 [epioxytetracycline]
Female progeny emerging as adults [1, 11]: 0
Male progeny emerging as adults [1, 11]: 1243
Female progeny emerging as adults [1, 12]: 0
Male progeny emerging as adults [1, 12]: 1409
Female progeny emerging as adults [1, 13]: 0
Male progeny emerging as adults [1, 13]: 1373
Female progeny emerging as adults [2, 11]: 0
Male progeny emerging as adults [2, 11]: 1362
Female progeny emerging as adults [2, 12]: 0
Male progeny emerging as adults [2, 12]: 1181
Female progeny emerging as adults [2, 13]: 0
Male progeny emerging as adults [2, 13]: 1403
Female progeny emerging as adults [3, 11]: 0
Male progeny emerging as adults [3, 11]: 1076
Female progeny emerging as adults [3, 12]: 0
Male progeny emerging as adults [3, 12]: 1119
Female progeny emerging as adults [3, 13]: 0
Male progeny emerging as adults [3, 13]: 1159
Female progeny emerging as adults [4, 11]: 0
Male progeny emerging as adults [4, 11]: 1250
Female progeny emerging as adults [4, 12]: 0
Male progeny emerging as adults [4, 12]: 1300
Female progeny emerging as adults [4, 13]: 0
Male progeny emerging as adults [4, 13]: 1364
Female progeny [5, 14]: 0
Male progeny [5, 14]: 1306
Female progeny [5, 15]: 0
Male progeny [5, 15]: 1581
Female progeny [5, 16]: 0
Male progeny [5, 16]: 1495
Female progeny emerging as adults [6, 11]: 0
Male progeny emerging as adults [6, 11]: 1165
Female progeny emerging as adults [6, 12]: 0
Male progeny emerging as adults [6, 12]: 1279
Female progeny emerging as adults [6, 13]: 0
Male progeny emerging as adults [6, 13]: 1257
Female progeny emerging as adults [7, 11]: 0
Male progeny emerging as adults [7, 11]: 1483
Female progeny emerging as adults [7, 12]: 0
Male progeny emerging as adults [7, 12]: 1585
Female progeny emerging as adults [7, 13]: 0
Male progeny emerging as adults [7, 13]: 1565
Female progeny emerging as adults [8, 11]: 0
Male progeny emerging as adults [8, 11]: 1350
Female progeny emerging as adults [8, 12]: 0
Male progeny emerging as adults [8, 12]: 1308
Female progeny emerging as adults [8, 13]: 0
Male progeny emerging as adults [8, 13]: 1343
Female progeny emerging as adults [9, 11]: 0
Male progeny emerging as adults [9, 11]: 1431
Female progeny emerging as adults [9, 12]: 0
Male progeny emerging as adults [9, 12]: 1424
Female progeny emerging as adults [9, 13]: 0
Male progeny emerging as adults [9, 13]: 1387
concentration on which recombinant chromosome stocks can readily be maintained ([10]; 25° C.): 1 µg/mL
repressing tTA responsive gene expression ([10]; 25° C.): effective
concentration required to repress gene expression, compared with tetracycline ([10]; in vivo): slightly higher concentrations are required
stock maintenance at the two lowest concentrations ([10]; standard range of additive concentrations 0.05-20 μg/ml): unable to maintain stock
